Measurements taken from patent US20170319256A1, “METHOD OF SELECTIVELY KILLING CANCER CELLS USING LOW-TEMPERATURE PLASMA JET DEVICE AND METHOD OF TREATING TUMORS USING THE SAME” (Dong-A University Research Foundation for Industry-Academy …, priority 2016, published 2017).

Assays:
A549 and SKMEL2 cells = assay: CHK1 phosphorylation immunofluorescence after kinase inhibitor pretreatment and NTP or NTPO; format: cell-based, human; details: inhibitor pretreatment (5 or 10 μM, 1 h before plasma), followed by NTP or NTPO; FIG. 3A
Experimental: (§1) Cells were treated using a previously reported plasma jet device. A typical operating condition of the pulsed-dc plasma jet has the applied voltage 1.6 kV, repetition frequency 50 kHz, and duty ratio 10%. The working gas (helium) and reactive gas (oxygen) flow rate were kept constant at 500 and 5 SCCM (SCCM denotes cubic centimeter per minute at standard temperature and pressure), respectively. The cells were cultured on 12-mm microscope cover glass coated with gelatin from porcine skin (Sigma-Aldrich) and were treated with helium generated-NTP with or without the flow of oxygen gas. The exposed cover glass was then transferred to 12-well plates containing fresh medium and incubated at 37° C. in a humidified incubator supplemented with 5% CO2. If necessary, the cells were treated with 5 or 10 μM of specific inhibitors targeting ATR (ETP46464), ATM (KU55933), DNA-PK (NU7026), or PARP1 (AZD2281) for 1 h before plasma treatment and kept until cell harvest. […]
(§2) For immunofluorescence staining, cells were fixed with 4% formaldehyde (Sigma-Aldrich) for 10 min at room temperature and permeabilized with 0.5% Triton™ X-100 (Bio Basic). […] The images were captured using a fluorescence microscope (Nikon) equipped with the NIS-Elements 4.0 Nikon imaging software. For quantification, a minimum of 500 cells were analyzed from each of three independent experiments.

A549 and SK-MEL2 cells = assay: γH2AX phosphorylation immunofluorescence (marker for DNA breaks); format: cell-based, human; details: FIG. 4A
Experimental: as §1, §2

Structure (SMILES)	CHK1 phosphorylation (A549 and SKMEL2 cells)	γH2AX phosphorylation (A549 and SK-MEL2 cells; PARP-1 inhibitor plus treatment of NTP or NTPO)	γH2AX phosphorylation (A549 and SK-MEL2 cells; PARP-1 inhibitor, gas control)
CC(C)(C#N)c1ccc(N2C(=O)OCc3cnc4ccc(-c5cnc6ccccc6c5)cc4c32)cc1 [ETP 46464]	phosphorylation was not shown		
O=C(c1cc(Cc2n[nH]c(=O)c3ccccc23)ccc1F)N1CCN(C(=O)C2CC2)CC1 [AZD2281, olaparib]		significantly increased	measured even in the case of gas control
